# Reference: PubChem BioAssay AID493102 (Broad Institute, 2011)
# System: SK-MEL-5 TRPM1-promoter luciferase reporter, 24 h
# Assay: TRPM1 promoter luciferase signal decrease, dose response, MITF inhibitor project, cell-based, SK-MEL-5, cherry-picked, set 4 (AID 493102);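 further: actives lower the luciferase signal so the potency reflects inhibition of reporter expression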
row,Compound,AC50 [µM]
1,COC(=O)[C@@H]1C[C@]2(OC(=O)c3ccccc3)C=CC(=O)C[C@@H]2N1C(=O)OCc1ccccc1,14
2,Oc1c(CN2CCCC2)cc(COCc2ccccc2)c2cccnc12,6.15
3,Cc1ccc(OCC(=O)N/N=C/c2ccc([N+](=O)[O-])o2)cc1,8.9
4,CCOC(=O)c1nnn(-c2ccc([N+](=O)[O-])cc2[N+](=O)[O-])c1C,8.85
5,Cc1cc(C)cc(N2C(=O)NC(=O)/C(=C\c3cccn3-c3ccccc3)C2=O)c1,13.8
6,C=C1C(=O)O[C@@H]2[C@H]1[C@@H](OC(=O)/C(C)=C/C)C/C(C)=C\C(=O)/C=C(\C)[C@@H]2O,7.07
7,CC(=O)Nc1ccc(NC(=O)c2nc(S(=O)(=O)Cc3ccccc3)ncc2Cl)cc1,12.8
8,Cc1cc(C(=O)CCl)c(C)n1CCc1ccc(F)cc1,4.25
9,O=C(N/N=C/c1ccc([N+](=O)[O-])o1)c1cc2ccccc2o1,5.99
10,Cc1nn(-c2ccccc2Cl)c(Cl)c1/C=N/Nc1cccc(C(=O)O)c1,5.5
11,C=C1C(=O)O[C@@]23[C@H]1CC[C@@H](C)[C@@H]2CC[C@@]1(C)O[C@@H]31,5.22
12,COc1ccc(S(=O)(=O)N(C(C)=O)c2ccc(OC(C)=O)c3ccccc23)cc1[N+](=O)[O-],11.6
13,COc1cc(C(=O)Oc2c(CN3CCOCC3)cc(Cl)c3cccnc23)cc(OC)c1OC,7.56
14,Cc1ccc(NC(=O)c2ncn(CCCN[C@H](C)c3cccc4ccccc34)n2)cc1C,22.7
15,CCOC(=O)CSC1=NC(=O)/C(=C\c2ccc(OC(C)=O)cc2)S1,5.13
16,O=C(CCCc1ccccc1)Nc1cccc(C(=O)O)c1,4.42
17,CC(=NNC(=S)N1CCN(c2ccccn2)CC1)c1nccs1,0.681
18,CN(C)CCCNC(=O)/C(=C\c1ccc(-c2ccc(Br)cc2)o1)NC(=O)c1ccccc1,7.51
19,O=C(CNc1cccc([N+](=O)[O-])c1)N/N=C/c1ccc([N+](=O)[O-])o1,8.63

row,Compound,AC50 [µM]
1,O=C1NC(=O)C(=Cc2ccc(-c3cc(Cl)ccc3[N+](=O)[O-])o2)C(=O)N1,17.2
2,CCc1ccc(N2C(=O)NC(=O)/C(=C\C=C\c3ccco3)C2=O)cc1,7.53
3,Cc1ccc(-c2cc(-c3ccc(C)cc3)[n+](C)o2)cc1,8.24
4,CC(C)(C)C(=O)Cn1ncc(Cl)c(Cl)c1=O,10.4
5,O=C(Cc1ccccc1)NCC(=O)N/N=C/c1ccc([N+](=O)[O-])s1,16.1
6,Cc1ccc2c(c1)COc1c3ccc(C(=O)O)cc3nn1-2,2.23
7,Cc1onc(-c2ccccc2)c1C(=O)N/N=C/c1ccc([N+](=O)[O-])s1,5.35
8,COc1ccc2c(C)nc(Nc3nc(-c4ccccc4)cc(=O)[nH]3)nc2c1,2.91
9,CCOC(=O)c1cc([N+](=O)[O-])c([N+](=O)[O-])cc1NC(C)=O,24.2
10,CCN(CCO)c1ccc(N=Nc2cc(C)[nH]n2)cc1,3.6
11,O=C1NC(=O)N(Cc2ccccc2)C(=O)/C1=C\C=C\c1ccco1,6.29
12,O=C(C#Cc1ccccc1)c1cccc([N+](=O)[O-])c1,3.62
13,O=C(CCl)N1c2ccccc2SCC1c1ccccc1 (configuration not stated),4.2
14,O=C(Cn1ncc(Cl)c(Cl)c1=O)N1CCN(Cc2ccccc2)CC1,10.9
15,Cc1nc(NC(=O)/C=C/c2ccccc2)n[nH]1,17.8
16,C=CC[n+]1c(-c2ccc(C)cc2)csc1Nc1ccc(NC(C)=O)cc1,1.57
17,Cn1nnnc1Sc1ncnc2scc(-c3cccs3)c12,7
18,O=C(/C=C/NNC(=O)c1ccccc1)c1ccc([N+](=O)[O-])cc1,9.19
19,CN1C(=O)/C(=C/c2cccn2-c2ccc3ccccc3c2)C(=O)NC1=S,9.42

row,Compound,AC50 [µM]
1,CC(C)N1C(=O)/C(=C/C=C/c2ccco2)C(=O)N(Cc2ccco2)C1=O,9.97
2,O=C(Nc1nc(-c2ccccn2)cs1)c1ccc(F)c(S(=O)(=O)N2CCOCC2)c1,5.7
3,Cc1ccc(NC(=O)C2CCN(S(=O)(=O)c3c(C)noc3/C=C/c3ccco3)CC2)nc1,5.56
4,COc1ccc(C(=O)Nc2ccc(C)cn2)c(OC)c1,3.7
5,O=C(N/N=C/c1ccccc1Cl)c1n[nH]c2c1CCCC2,7.97
6,Nc1ccc(-c2ncc(-c3ccccc3)o2)cc1,0.171
7,CC1CCN(c2nc3ccc(C(=O)O)cc3s2)CC1,1.25
8,O=C(/C=C/c1cccc([N+](=O)[O-])c1)c1cccs1,15.3
9,CC1CCCCC1NC(=O)/C(C#N)=C/c1ccccc1F (configuration not stated),14.4
10,Cc1ccc(-c2cn3nc(C)c(C)nc3n2)cc1,5.3
11,CC1(C)Cc2c(sc(NC(=O)c3ccc4ncsc4c3)c2C(N)=O)C(C)(C)N1,10.1
12,Cc1ccc(C(O)(c2ccc(C)c(C)c2)C2CN3CCC2CC3)cc1C (configuration not stated),10.1
13,O=C(O)c1cccc(N/N=C/c2cccs2)c1,1.51
14,Cn1nnnc1Sc1ncnc2scc(-c3ccc(C#N)cc3)c12,4.98
15,Nc1ccc(-c2nc3c(Cl)cc(N)cc3[nH]2)cc1,3.76
16,Cc1cc(-n2c(SCC(=O)NCCC3=CCCCC3)nc3n[nH]c(C)c3c2=N)ccc1Cl,17.1
17,CC1CN(C(=O)CCC(=O)NCCCN2CCC(Cc3ccccc3)CC2)c2cc(Cl)ccc2O1 (configuration not stated),16.2
18,CC(C)CC(=O)NC(c1cccs1)c1ccc2cccnc2c1O (configuration not stated),3.71
19,Cc1ccc(-n2[nH]c(=O)c(-c3ccccn3)c2C)cc1,3.23
